Experiments:
[1] = molecular target: KRAS G13D (Homo sapiens, UniProt P01116, G13D); assay: SOS-catalyzed nucleotide exchange assay, KRAS G13D (Procedure A); type: biochemical; conditions: GNE
Method in brief: (§1)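 Compounds in 10-point 3-fold series sat 60 min with biotin-KRAS/Bodipy-GDP/Tb-streptavidin complex, then human SOS and 3 mM GTP were added. G13D: 1.25 nM KRAS, no SOS, 30 min. WT and G12D: 1 nM with 40 nM SOS, 60 min. G12C (C51S/C80L/C118S): 3 nM/40 nM, 60 min. Curves fitted from normalised TR-FRET 520/495 ratio.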

[2] = molecular target: KRAS G12C (Homo sapiens, UniProt P01116, C118S/C51S/C80L/G12C); assay: SOS-catalyzed nucleotide exchange assay, KRAS G12C (Procedure A); type: biochemical; conditions: GNE
Method in brief: as §1

[3] = molecular target: HRAS (Homo sapiens, UniProt P01112); assay: SOS-catalyzed nucleotide exchange assay, HRAS (Procedure A); type: biochemical; conditions: GNE
Method in brief: (§2)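 60 min cpd preinc. w/ RAS–Bodipy-GDP–Tb-SA complex; + hSOS/GTP (3 mM final), RT. G12C 3 nM RAS/40 nM SOS; WT, G12D 1 nM/40 nM; 60 min rxn. G13D 1.25 nM, no SOS, 30 min rxn. HEPES pH 7.5, 10 mM MgCl2. Ratio 520/495, norm. to DMSO/max-inhibitor ctrls.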

[4] = molecular target: KRAS WT (Homo sapiens, UniProt P01116); assay: SOS-catalyzed nucleotide exchange assay, KRAS WT (Procedure A); type: biochemical; conditions: GNE
Method in brief: as §1

[5] = molecular target: NRAS (Homo sapiens, UniProt P01111); assay: SOS-catalyzed nucleotide exchange assay, NRAS (Procedure A); type: biochemical; conditions: GNE
Method in brief: as §2

[6] = molecular target: KRAS G12D (Homo sapiens, UniProt P01116, G12D); assay: SOS-catalyzed nucleotide exchange assay, KRAS G12D (Procedure A); type: biochemical; conditions: guanine nucleotide exchange (GNE)
Method in brief: as §1

[7] = molecular target: KRAS G12V (Homo sapiens, UniProt P01116, G12V); assay: SOS-catalyzed nucleotide exchange assay, KRAS G12V (Procedure A); type: biochemical; conditions: GNE
Method in brief: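 Biotinylated KRAS G12V was loaded with Bodipy-GDP alongside Terbium-streptavidin to form a TR-FRET complex, which was preincubated with compounds for 60 minutes in 384-well plates. Human SOS protein and unlabeled GTP were then added for 90 minutes, giving final concentrations of 1.25 nM KRAS-G12V, 160 nM SOS and 3 mM GTP. The 520/495 nm emission ratio was read on an Envision.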

[8] = molecular target: T1, PANC08.13 cells (Homo sapiens, UniProt P01116, G12D); assay: Cellular phospho-ERK assay, PANC08.13 cells (KRAS G12D); type: cell-based; conditions: 2 hours, read-out: PANCO 813 pERK IC50
T1 construct: p-ERK/total ERK AlphaSureFire read-out
Method: Procedure for Cellular Phospho-ERK Assay in KRAS Wild Type and Mutant (G12D, G12V) Cell Lines
PANC08.13 cells (ATCC® CRL-2551™), containing homozygous KRAS-G12D activating mutation, were cultured in growth medium made of RPMI1640-GlutaMAX™-I (ThermoFisher Scientific 61870) containing 15% heat inactivated fetal bovine serum (ThermoFisher Scientific 10091148)). AsPC-1 cells (ATCC® CRL-1682™), containing homozygous KRAS-G12D activating mutation, were cultured in T150 flask in growth medium (RPMI medium 1640-GlutaMAX™-I (ThermoFisher Scientific 61870) containing 10% fetal bovine serum (ThermoFisher Scientific 10091148)).
Cells for the assay were harvested in growth medium after TrypLE (ThermoFisher scientific 12604021) digestion and were seeded in a 384-well collagen coated cell culture plate (Corning 356702) at a density of 10,000-15,000 cells/20 μL/well, and incubated at 37° C., 5% CO2 overnight. The compound (with 10 mM stock concentration) dose-response titrations were prepared [30 μM final ERK detection assay concentration and 1:3 dilutions, 10-point dose response] and appropriate amounts (270 nL) of test compounds were dispensed in a 384-well intermediate plate using an Echo 550 liquid handler. 30 μL/well of RPMI medium 1640-GlutaMAX™-I was added to the intermediate plate and the contents of the intermediate plate (10 μL/well) were then transferred to the 384-well collagen coated cell culture plate, which was incubated at 37° C., 5% CO2 for 2 hours. After removal of medium from the collagen coated cell culture plate, cells were lysed in lysis buffer from Alpha SureFire® Ultra™ Multiplex p-ERK and total ERK assay kit (PerkinElmer MPSU-PTERK) containing Halt™ Protease and Phosphatase inhibitor cocktail (ThermoFisher Scientific 78446) at room temperature with constant shaking at 300 rpm for 30 minutes. The cell lysates were then transferred to an OptiPlate-384 plate (PerkinElmer 6005620), and the phosphorylation of ERK (p-ERK) and total ERK levels were detected by Alpha SureFire® Ultra™ Multiplex p-EEK kit and total ERK assay kit (PerkinElmer MPSU-PTERK) following the manufacturer's protocol. Assay plates were read on a EnVision Multimode Plate Reader (PerkinElmer), and the ratio of p-ERK vs. total ERK in each well was used as the final readout. Dose response curves were analyzed using a 4-parameter logistic model to calculate IC50 values using Spotfire software.

T1 sequence (P01116 1-188 isoform P01116-2 G12D): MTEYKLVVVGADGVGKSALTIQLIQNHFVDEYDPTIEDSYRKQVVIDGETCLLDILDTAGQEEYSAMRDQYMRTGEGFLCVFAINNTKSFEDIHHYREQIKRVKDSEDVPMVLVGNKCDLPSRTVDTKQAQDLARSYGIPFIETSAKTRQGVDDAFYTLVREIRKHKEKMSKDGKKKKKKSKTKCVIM
NRAS, sequence (P01111 with tags, fused parts or gaps): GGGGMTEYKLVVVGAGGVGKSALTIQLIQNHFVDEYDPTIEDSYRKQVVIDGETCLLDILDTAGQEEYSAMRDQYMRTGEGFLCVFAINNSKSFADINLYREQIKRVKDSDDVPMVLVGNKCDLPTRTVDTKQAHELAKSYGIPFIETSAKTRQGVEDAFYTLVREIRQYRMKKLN
KRAS G12D, sequence (P01116 with tags, fused parts or gaps isoform P01116-2 G12D): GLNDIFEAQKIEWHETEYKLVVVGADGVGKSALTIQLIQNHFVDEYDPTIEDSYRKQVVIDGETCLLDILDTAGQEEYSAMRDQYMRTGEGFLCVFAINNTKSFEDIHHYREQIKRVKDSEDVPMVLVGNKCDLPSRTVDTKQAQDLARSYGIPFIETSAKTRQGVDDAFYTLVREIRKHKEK
KRAS G13D, sequence (P01116 with tags, fused parts or gaps isoform P01116-2 G13D): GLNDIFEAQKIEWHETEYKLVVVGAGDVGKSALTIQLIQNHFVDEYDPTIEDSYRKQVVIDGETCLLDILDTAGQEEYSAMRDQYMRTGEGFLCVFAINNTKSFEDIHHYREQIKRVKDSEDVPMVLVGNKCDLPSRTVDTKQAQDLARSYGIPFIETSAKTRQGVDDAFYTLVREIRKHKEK
KRAS G12V, sequence (P01116 with tags, fused parts or gaps isoform P01116-2 G12V): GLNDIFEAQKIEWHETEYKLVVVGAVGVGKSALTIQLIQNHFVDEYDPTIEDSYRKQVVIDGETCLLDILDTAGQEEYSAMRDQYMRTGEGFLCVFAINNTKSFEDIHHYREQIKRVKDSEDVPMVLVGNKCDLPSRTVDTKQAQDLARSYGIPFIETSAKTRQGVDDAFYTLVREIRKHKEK
KRAS WT, sequence (P01116 with tags, fused parts or gaps isoform P01116-2): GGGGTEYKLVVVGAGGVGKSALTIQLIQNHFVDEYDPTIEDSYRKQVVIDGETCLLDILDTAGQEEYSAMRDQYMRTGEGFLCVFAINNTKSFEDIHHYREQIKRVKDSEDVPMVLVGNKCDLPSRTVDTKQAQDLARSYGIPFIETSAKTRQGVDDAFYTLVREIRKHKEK
HRAS, sequence (P01112 with tags, fused parts or gaps): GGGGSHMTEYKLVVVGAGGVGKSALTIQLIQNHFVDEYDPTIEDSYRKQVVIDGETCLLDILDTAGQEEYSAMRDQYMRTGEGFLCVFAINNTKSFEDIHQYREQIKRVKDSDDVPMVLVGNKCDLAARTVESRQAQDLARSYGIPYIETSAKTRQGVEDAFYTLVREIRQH
KRAS G12C, sequence (P01116 with tags, fused parts or gaps isoform P01116-2 G12C/C51S/C80L/C118S): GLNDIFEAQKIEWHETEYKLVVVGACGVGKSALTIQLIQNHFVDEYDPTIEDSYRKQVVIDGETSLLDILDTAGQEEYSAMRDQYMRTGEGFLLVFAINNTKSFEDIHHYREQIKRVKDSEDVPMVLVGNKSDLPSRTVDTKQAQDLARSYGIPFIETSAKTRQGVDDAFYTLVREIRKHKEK

Structure (SMILES) | IC50 [1] [µM] | IC50 [2] [µM] | IC50 [3] [µM] | IC50 [4] [µM] | IC50 [5] [µM] | IC50 [6] [µM] | IC50 [7] [µM] | IC50 [8] [µM]
Cc1cc2[nH]nc(C#N)c2c(-c2nccc3c4c(N5C[C@H]6CC[C@@H](C5)N6)nc(OC[C@@]56CCCN5C[C@H](F)C6)nc4n(C)c23)c1C(F)F (single isomer, unassigned) [Ex-4] | 4.02 | > 11.1 | > 11.1 | > 11.1 | > 11.1 | 0.119 | > 11.1 | 3.75
Cn1c2nc(OC[C@@]34CCCN3C[C@H](F)C4)nc(N3C[C@H]4CC[C@@H](C3)N4)c2c2ccnc(-c3ccc(F)c4sc(N)c(C#N)c34)c21 [Ex-5, 4-(4-((1R,5S)-3,8-diazabicyclo[3.2.1]octan-3-yl)-2-(((2R,7aS)-2-fluorotetrahydro-1H-pyrrolizin-7a(5H)-yl)methoxy)-9-methyl-9H-pyrido[4′,3′:4,5]pyrrolo[2,3-d]pyrimidin-8-yl)-2-amino-7-fluorobenzo[b]thiophene-3-carbonitrile] | 0.349 | > 11.1 | > 11.1 | > 11.1 | > 11.1 | 0.018 | > 11.1 | 1.19
Cc1cc(N)nc(-c2nccc3c4c(N5C[C@H]6CC[C@@H](C5)N6)nc(OC[C@@]56CCCN5C[C@H](F)C6)nc4n(C)c23)c1C(F)(F)F [Ex-6, 6-(4-((1R,5S)-3,8-diazabicyclo[3.2.1]octan-3-yl)-2-(((2R,7aS)-2-fluorotetrahydro-1H-pyrrolizin-7a(5H)-yl)methoxy)-9-methyl-9H-pyrido[4′,3′:4,5]pyrrolo[2,3-d]pyrimidin-8-yl)-4-methyl-5-(trifluoromethyl)pyridin-2-amine] | > 11.1 | > 11.1 | > 11.1 | > 11.1 | > 11.1 | 0.906 | > 11.1 | 9.85
C#Cc1c(F)ccc2cc(N)nc(-c3nccc4c5c(N6C[C@H]7CC[C@@H](C6)N7)nc(OC[C@@]67CCCN6C[C@H](F)C7)nc5n(C)c34)c12 [Ex-7, 1-(4-((1R,5S)-3,8-diazabicyclo[3.2.1]octan-3-yl)-2-(((2R,7aS)-2-fluorotetrahydro-1H-pyrrolizin-7a(5H)-yl)methoxy)-9-methyl-9H-pyrido[4′,3′:4,5]pyrrolo[2,3-d]pyrimidin-8-yl)-8-ethynyl-7-fluoroisoquinolin-3-amine] | 1.45 | > 11.1 | > 11.1 | > 11.1 | > 11.1 | 0.051 | > 11.1 | 0.572
CCn1c2nc(OC[C@@]34CCCN3C[C@H](F)C4)nc(N3C[C@H]4CC[C@@H](C3)N4)c2c2ccnc(-c3c(C(F)(F)F)c(C)cc4[nH]ncc34)c21 [Ex-11, 4-((1R,5S)-3,8-diazabicyclo[3.2.1]octan-3-yl)-9-ethyl-2-(((2R,7aS)-2-fluorotetrahydro-1H-pyrrolizin-7a(5H)-yl)methoxy)-8-(6-methyl-5-(trifluoromethyl)-1H-indazol-4-yl)-9H-pyrido[4′,3′:4,5]pyrrolo[2,3-d]pyrimidine] | – | – | – | > 11.1 | – | 0.698 | > 11.1 | 2.48
Nc1nc2c(-c3nccc4c3sc3nc(OC[C@@]56CCCN5C[C@H](F)C6)nc(N5C[C@H]6CC[C@@H](C5)N6)c34)ccc(F)c2s1 [Ex-16, 4-(4-((1R,5S)-3,8-diazabicyclo[3.2.1]octan-3-yl)-2-(((2R,7aS)-2-fluorotetrahydro-1H-pyrrolizin-7a(5H)-yl)methoxy)pyrido[4′,3′:4,5]thieno [2,3-d]pyrimidin-8-yl)-7-fluorobenzo[d]thiazol-2-amine] | – | – | – | > 11.1 | – | 0.283 | > 11.1 | 9.74
Cc1cc2[nH]nc(C#N)c2c(-c2nccc3c2sc2nc(OC[C@@]45CCCN4C[C@H](F)C5)nc(N4C[C@H]5CC[C@@H](C4)N5)c23)c1C(F)F [Ex-18, 4-(4-((1R,5S)-3,8-diazabicyclo[3.2.1]octan-3-yl)-2-(((2R,7aS)-2-fluorotetrahydro-1H-pyrrolizin-7a(5H)-yl)methoxy)pyrido[4′,3′:4,5]thieno[2,3-d]pyrimidin-8-yl)-5-(difluoromethyl)-6-methyl-1H-indazole-3-carbonitrile] | – | – | – | > 11.1 | – | 0.123 | > 11.1 | 0.666
Cc1cc2[nH]ncc2c(-c2nccc3c2sc2nc(OC[C@]4(CO)CC4(F)F)nc(N4C[C@H]5CC[C@@H](C4)N5)c23)c1OC(F)F [Ex-51, ((1R)-1-(((4-((1R,5S)-3,8-diazabicyclo[3.2.1]octan-3-yl)-8-(5-(difluoromethoxy)-6-methyl-1H-indazol-4-yl)pyrido[4′,3′:4,5]thieno[2,3-d]pyrimidin-2-yl)oxy)methyl)-2,2-difluorocyclopropyl)methanol] | – | – | – | > 11.1 | – | 2.15 | > 11.1 | 6.81
Cc1cc2[nH]ncc2c(-c2nccc3c2sc2nc(OC[C@]4(CO)CC4(F)F)nc(N4C[C@H]5CC[C@@H](C4)N5)c23)c1OC(F)(F)Cl [Ex-52, ((1R)-1-(((4-((1R,5S)-3,8-diazabicyclo[3.2.1]octan-3-yl)-8-(5-(chlorodifluoromethoxy)-6-methyl-1H-indazol-4-yl)pyrido[4′,3′:4,5]thieno[2,3-d]pyrimidin-2-yl)oxy)methyl)-2,2-difluorocyclopro-pyl)methanol] | – | – | – | > 11.1 | – | 0.724 | > 11.1 | 2.77
N#Cc1c(N)sc2c(F)ccc(-c3nccc4c3sc3nc(OC[C@]5(CO)CC5(F)F)nc(N5CC6CCC(C5)N6)c34)c12 [Ex-60, 4-(4-(3,8-diazabicyclo[3.2.1]octan-3-yl)-2-(((R)-2,2-difluoro-1-(hydroxymethyl)cyclopropyl)methoxy)pyrido[4′,3′:4,5]thieno[2,3-d]pyrimidin-8-yl)-2-amino-7-fluorobenzo[b]thiophene-3-carbonitrile] | – | – | – | > 11.1 | – | 2.69 | > 11.1 | 10
N#Cc1c(N)sc2c(F)cc(F)c(-c3nccc4c3sc3nc(OC[C@]5(CO)CC5(F)F)nc(N5C[C@H]6CC[C@@H](C5)N6)c34)c12 [Ex-61, 4-(4-((1R,5S)-3,8-diazabicyclo[3.2.1]octan-3-yl)-2-(((R)-2,2-difluoro-1-(hydroxymethyl)cyclopro-pyl)methoxy)pyrido[4′,3′: 4,5]thieno[2,3-d]pyrimidin-8-yl)-2-amino-5,7-difluorobenzo[b]thiophene-3-carbonitrile] | – | – | – | > 11.1 | – | 0.859 | > 11.1 | 7.35
Cc1cc2[nH]ncc2c(-c2nccc3c2sc2nc(OCC4(CO)CCC4)nc(N4C[C@H]5CC[C@@H](C4)N5)c23)c1C(F)F [Ex-64, (1-(((4-((1R,5S)-3,8-diazabicyclo[3.2.1]octan-3-yl)-8-(5-(difluoromethyl)-6-methyl-1H-indazol-4-yl)pyrido[4′,3′:4,5]thieno[2,3-d]pyrimidin-2-yl)oxy)methyl)cyclobutyl)methanol] | – | – | – | > 11.1 | – | 9.42 | > 11.1 | > 10
